# Results published in ChEMBL document CHEMBL3763148, “Synthesis, structure elucidation, DNA-PK and PI3K and anti-cancer activity of 8- and 6-aryl-substituted-1-3-benzoxazines” (Eur J Med Chem, 2016).
# Columns and labels:
# [1] = Cytotoxicity against human NCI-ADR-RES cells assessed as cell growth inhibition at 10 uM after 48 hrs by SRB assay relative to control; format: functional; conditions: read-out: GI
# [2] = Cytotoxicity against human RPMI8226 cells assessed as cell growth inhibition at 10 uM after 48 hrs by SRB assay relative to control; format: functional; conditions: RPMI-8226, 48 h, read-out: GI
# A498 = experiment: Cytotoxicity against human A498 cells assessed as cell growth inhibition at 10 uM after 48 hrs by SRB assay relative to control; format: functional; conditions: A498, 48 h, read-out: GI
# U-251 = experiment: Cytotoxicity against human U251 cells assessed as cell growth inhibition at 10 uM after 48 hrs by SRB assay relative to control; format: functional; conditions: U-251, 48 h, read-out: GI
# [3] = Cytotoxicity against human HOP62 cells assessed as cell growth inhibition at 10 uM after 48 hrs by SRB assay relative to control; format: functional; conditions: HOP-62, 48 h, read-out: GI
# NCI-H522 = experiment: Cytotoxicity against human NCI-H522 cells assessed as cell growth inhibition at 10 uM after 48 hrs by SRB assay relative to control; format: functional; conditions: NCI-H522, 48 h, read-out: GI
# [4] = Cytotoxicity against human LOXIMVI cells assessed as cell growth inhibition at 10 uM after 48 hrs by SRB assay relative to control; format: functional; conditions: LOX IMVI, read-out: GI
# T47D = experiment: Cytotoxicity against human T47D cells assessed as cell growth inhibition at 10 uM after 48 hrs by SRB assay relative to control; format: functional; conditions: read-out: GI
# NCI-H23 = experiment: Cytotoxicity against human NCI-H23 cells assessed as cell growth inhibition at 10 uM after 48 hrs by SRB assay relative to control; format: functional; conditions: NCI-H23, 48 h, read-out: GI
# ACHN = experiment: Cytotoxicity against human ACHN cells assessed as cell growth inhibition at 10 uM after 48 hrs by SRB assay relative to control; format: functional; conditions: read-out: GI
# [5] = Cytotoxicity against human COLO205 cells assessed as cell growth inhibition at 10 uM after 48 hrs by SRB assay relative to control; format: functional; conditions: COLO 205, 48 h, read-out: GI
# [6] = Cytotoxicity against human RXF393 cells assessed as cell growth inhibition at 10 uM after 48 hrs by SRB assay relative to control; format: functional; conditions: RXF 393, 48 h, read-out: GI
# [7] = Cytotoxicity against human SNB19 cells assessed as cell growth inhibition at 10 uM after 48 hrs by SRB assay relative to control; format: functional; conditions: SNB-19, 48 h, read-out: GI
# MCF7 = experiment: Cytotoxicity against human MCF7 cells assessed as cell growth inhibition at 10 uM after 48 hrs by SRB assay relative to control; format: functional; conditions: MCF7, 48 h, read-out: GI
# [8] = Cytotoxicity against human SW620 cells assessed as cell growth inhibition at 10 uM after 48 hrs by SRB assay relative to control; format: functional; conditions: SW-620, 48 h, read-out: GI
# [9] = Cytotoxicity against human HCC2998 cells assessed as cell growth inhibition at 10 uM after 48 hrs by SRB assay relative to control; format: functional; conditions: HCC 2998, 48 h, read-out: GI
# [10] = Cytotoxicity against human MOLT4 cells assessed as cell growth inhibition at 10 uM after 48 hrs by SRB assay relative to control; format: functional; conditions: MOLT-4, 48 h, read-out: GI
# MDA-MB-435 = experiment: Cytotoxicity against human MDA-MB-435 cells assessed as cell growth inhibition at 10 uM after 48 hrs by SRB assay relative to control; format: functional; conditions: MDA-MB-435, 48 h, read-out: GI
# NCI-H322M = experiment: Cytotoxicity against human NCI-H322M cells assessed as cell growth inhibition at 10 uM after 48 hrs by SRB assay relative to control; format: functional; conditions: read-out: GI
# [11] = target: DNA-dependent protein kinase catalytic subunit (Homo sapiens, UniProt P78527); experiment: Inhibition of human DNA-PK using EPPLSQEAFADLWKK as substrate by HTRF assay
# Sequence of DNA-dependent protein kinase catalytic subunit (P78527 whole entry): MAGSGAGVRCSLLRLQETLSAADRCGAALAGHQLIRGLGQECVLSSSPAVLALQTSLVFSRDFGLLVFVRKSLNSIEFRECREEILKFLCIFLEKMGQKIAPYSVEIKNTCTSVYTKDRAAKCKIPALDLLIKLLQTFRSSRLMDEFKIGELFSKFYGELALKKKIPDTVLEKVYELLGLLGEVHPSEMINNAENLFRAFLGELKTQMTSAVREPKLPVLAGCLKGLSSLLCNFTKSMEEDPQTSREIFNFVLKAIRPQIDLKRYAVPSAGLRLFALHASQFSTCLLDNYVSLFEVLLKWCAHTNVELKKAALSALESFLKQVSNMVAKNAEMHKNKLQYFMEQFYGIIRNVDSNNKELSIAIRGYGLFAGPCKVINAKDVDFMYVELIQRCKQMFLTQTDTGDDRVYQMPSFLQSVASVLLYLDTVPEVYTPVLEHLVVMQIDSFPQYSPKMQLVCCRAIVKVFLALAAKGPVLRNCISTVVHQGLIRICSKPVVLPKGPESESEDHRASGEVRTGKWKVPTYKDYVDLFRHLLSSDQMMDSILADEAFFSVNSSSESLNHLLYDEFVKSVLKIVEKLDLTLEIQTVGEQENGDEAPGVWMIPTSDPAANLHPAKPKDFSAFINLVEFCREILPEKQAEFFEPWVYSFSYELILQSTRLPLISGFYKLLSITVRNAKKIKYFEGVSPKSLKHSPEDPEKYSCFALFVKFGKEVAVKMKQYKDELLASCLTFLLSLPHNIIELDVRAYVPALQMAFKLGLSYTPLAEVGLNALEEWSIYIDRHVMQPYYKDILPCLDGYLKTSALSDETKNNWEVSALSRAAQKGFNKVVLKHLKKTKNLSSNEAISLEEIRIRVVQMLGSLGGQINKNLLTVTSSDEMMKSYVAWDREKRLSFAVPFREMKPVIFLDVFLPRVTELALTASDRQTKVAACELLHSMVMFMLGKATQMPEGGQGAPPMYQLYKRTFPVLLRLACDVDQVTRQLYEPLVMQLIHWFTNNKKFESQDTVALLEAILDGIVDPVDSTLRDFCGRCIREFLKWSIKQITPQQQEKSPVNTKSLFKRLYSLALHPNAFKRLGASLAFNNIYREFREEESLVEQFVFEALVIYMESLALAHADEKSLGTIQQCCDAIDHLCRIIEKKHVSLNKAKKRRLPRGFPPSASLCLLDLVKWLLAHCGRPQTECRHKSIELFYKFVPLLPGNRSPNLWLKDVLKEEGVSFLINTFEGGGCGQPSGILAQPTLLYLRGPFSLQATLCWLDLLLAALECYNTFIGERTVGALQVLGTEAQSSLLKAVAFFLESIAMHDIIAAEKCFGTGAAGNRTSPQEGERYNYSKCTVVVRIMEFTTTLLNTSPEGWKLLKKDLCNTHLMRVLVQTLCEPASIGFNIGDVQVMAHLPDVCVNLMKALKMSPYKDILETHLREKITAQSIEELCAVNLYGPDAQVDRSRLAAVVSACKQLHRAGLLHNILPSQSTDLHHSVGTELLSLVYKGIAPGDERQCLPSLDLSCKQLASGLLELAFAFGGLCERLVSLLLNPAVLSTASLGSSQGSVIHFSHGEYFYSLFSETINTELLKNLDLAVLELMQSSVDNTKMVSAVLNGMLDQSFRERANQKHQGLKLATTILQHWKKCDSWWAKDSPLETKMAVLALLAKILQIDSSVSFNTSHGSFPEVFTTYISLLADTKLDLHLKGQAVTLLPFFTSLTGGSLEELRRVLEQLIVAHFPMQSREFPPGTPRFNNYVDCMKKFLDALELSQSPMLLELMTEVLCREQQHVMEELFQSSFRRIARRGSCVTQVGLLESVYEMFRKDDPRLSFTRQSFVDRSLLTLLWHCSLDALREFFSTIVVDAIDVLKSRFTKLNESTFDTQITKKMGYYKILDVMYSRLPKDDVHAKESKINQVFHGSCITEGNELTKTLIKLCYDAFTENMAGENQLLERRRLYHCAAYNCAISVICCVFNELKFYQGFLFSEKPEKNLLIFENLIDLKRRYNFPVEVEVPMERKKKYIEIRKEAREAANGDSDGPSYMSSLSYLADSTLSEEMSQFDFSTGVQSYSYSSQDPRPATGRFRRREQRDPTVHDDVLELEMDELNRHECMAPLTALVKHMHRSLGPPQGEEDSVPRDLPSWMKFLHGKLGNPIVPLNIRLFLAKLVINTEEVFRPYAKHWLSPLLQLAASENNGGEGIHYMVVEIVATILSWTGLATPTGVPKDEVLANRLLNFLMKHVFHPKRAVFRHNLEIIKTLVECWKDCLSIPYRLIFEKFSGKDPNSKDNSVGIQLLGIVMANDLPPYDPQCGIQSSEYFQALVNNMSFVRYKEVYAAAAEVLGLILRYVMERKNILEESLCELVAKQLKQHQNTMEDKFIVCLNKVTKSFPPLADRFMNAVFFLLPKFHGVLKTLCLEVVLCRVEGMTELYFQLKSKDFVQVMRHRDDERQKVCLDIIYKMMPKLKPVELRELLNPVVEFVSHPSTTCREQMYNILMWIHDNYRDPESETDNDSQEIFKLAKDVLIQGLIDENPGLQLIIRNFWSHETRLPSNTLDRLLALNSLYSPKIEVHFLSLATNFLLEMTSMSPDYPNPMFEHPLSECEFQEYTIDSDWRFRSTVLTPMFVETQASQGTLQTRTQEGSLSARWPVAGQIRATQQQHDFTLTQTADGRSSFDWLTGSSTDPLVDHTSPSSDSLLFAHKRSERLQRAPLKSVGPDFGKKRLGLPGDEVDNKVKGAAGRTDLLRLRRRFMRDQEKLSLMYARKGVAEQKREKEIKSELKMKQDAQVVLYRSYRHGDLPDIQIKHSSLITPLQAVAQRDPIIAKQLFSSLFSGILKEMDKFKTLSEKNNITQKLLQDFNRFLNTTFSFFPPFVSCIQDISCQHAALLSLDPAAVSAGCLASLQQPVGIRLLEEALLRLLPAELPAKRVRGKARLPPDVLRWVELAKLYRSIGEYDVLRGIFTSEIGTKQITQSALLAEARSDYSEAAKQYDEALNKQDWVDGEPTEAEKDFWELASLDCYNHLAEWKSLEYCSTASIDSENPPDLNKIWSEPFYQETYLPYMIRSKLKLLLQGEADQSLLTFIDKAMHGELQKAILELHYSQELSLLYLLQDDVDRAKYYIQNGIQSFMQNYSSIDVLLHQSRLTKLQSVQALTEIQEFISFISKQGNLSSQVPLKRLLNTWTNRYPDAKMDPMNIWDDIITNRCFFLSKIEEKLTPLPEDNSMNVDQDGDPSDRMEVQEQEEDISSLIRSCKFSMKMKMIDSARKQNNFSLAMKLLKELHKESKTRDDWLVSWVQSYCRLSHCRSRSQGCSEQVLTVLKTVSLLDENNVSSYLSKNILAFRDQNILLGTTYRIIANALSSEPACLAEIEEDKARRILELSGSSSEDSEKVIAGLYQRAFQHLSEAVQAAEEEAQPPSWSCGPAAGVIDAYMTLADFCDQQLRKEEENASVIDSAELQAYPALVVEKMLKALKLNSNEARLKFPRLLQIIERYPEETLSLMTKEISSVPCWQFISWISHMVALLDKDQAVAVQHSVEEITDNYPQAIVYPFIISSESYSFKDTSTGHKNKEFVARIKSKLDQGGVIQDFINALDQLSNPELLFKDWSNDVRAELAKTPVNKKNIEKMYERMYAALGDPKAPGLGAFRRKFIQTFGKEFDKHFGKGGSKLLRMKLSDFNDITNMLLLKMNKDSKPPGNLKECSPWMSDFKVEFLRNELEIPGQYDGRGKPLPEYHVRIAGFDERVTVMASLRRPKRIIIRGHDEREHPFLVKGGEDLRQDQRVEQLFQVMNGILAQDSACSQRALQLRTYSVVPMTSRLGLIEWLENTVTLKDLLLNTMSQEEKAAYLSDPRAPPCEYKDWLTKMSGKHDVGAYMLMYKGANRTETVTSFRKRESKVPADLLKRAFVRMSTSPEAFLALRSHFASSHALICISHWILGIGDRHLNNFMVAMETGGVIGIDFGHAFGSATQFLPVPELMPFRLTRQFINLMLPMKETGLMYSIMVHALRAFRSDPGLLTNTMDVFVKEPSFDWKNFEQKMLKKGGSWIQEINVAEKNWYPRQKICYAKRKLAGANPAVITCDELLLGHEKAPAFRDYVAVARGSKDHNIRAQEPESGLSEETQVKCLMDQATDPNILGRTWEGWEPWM
# [12] = Cytotoxicity against human SKOV3 cells assessed as cell growth inhibition at 10 uM after 48 hrs by SRB assay relative to control; format: functional; conditions: SK-OV-3, 48 h, read-out: GI
# [13] = Cytotoxicity against human PC3 cells assessed as cell growth inhibition at 10 uM after 48 hrs by SRB assay relative to control; format: functional; conditions: PC-3, 48 h, read-out: GI
# [14] = Cytotoxicity against human SNB75 cells assessed as cell growth inhibition at 10 uM after 48 hrs by SRB assay relative to control; format: functional; conditions: SNB-75, 48 h, read-out: GI
# [15] = Cytotoxicity against human OVCAR4 cells assessed as cell growth inhibition at 10 uM after 48 hrs by SRB assay relative to control; format: functional; conditions: OVCAR-4, 48 h, read-out: GI
# [16] = Cytotoxicity against human HOP92 cells assessed as cell growth inhibition at 10 uM after 48 hrs by SRB assay relative to control; format: functional; conditions: HOP-92, 48 h, read-out: GI
# [17] = Cytotoxicity against human UACC257 cells assessed as cell growth inhibition at 10 uM after 48 hrs by SRB assay relative to control; format: functional; conditions: UACC-257, 48 h, read-out: GI
# EKVX = experiment: Cytotoxicity against human EKVX cells assessed as cell growth inhibition at 10 uM after 48 hrs by SRB assay relative to control; format: functional; conditions: read-out: GI
# SK-MEL-2 = experiment: Cytotoxicity against human SK-MEL-2 cells assessed as cell growth inhibition at 10 uM after 48 hrs by SRB assay relative to control; format: functional; conditions: SK-MEL-2, 48 h, read-out: GI
# HT-29 = experiment: Cytotoxicity against human HT-29 cells assessed as cell growth inhibition at 10 uM after 48 hrs by SRB assay relative to control; format: functional; conditions: HT-29, 48 h, read-out: GI
# [18] = Cytotoxicity against human HL-60(TB) cells assessed as cell growth inhibition at 10 uM after 48 hrs by SRB assay relative to control; format: functional; conditions: HL-60, 48 h, read-out: GI
SMILES,inhibition of growth at 10 µM [1] [%],inhibition of growth at 10 µM [2] [%],inhibition of growth at 10 µM (A498) [%],inhibition of growth at 10 µM (U-251) [%],inhibition of growth at 10 µM [3] [%],inhibition of growth at 10 µM (NCI-H522) [%],inhibition of growth at 10 µM [4] [%],inhibition of growth at 10 µM (T47D) [%],inhibition of growth at 10 µM (NCI-H23) [%],inhibition of growth at 10 µM (ACHN) [%],inhibition of growth at 10 µM [5] [%],inhibition of growth at 10 µM [6] [%],inhibition of growth at 10 µM [7] [%],inhibition of growth at 10 µM (MCF7) [%],inhibition of growth at 10 µM [8] [%],inhibition of growth at 10 µM [9] [%],inhibition of growth at 10 µM [10] [%],inhibition of growth at 10 µM (MDA-MB-435) [%],inhibition of growth at 10 µM (NCI-H322M) [%],inhibition of growth at 10 µM [12] [%],further results
COc1ccc(-c2cccc3c(=O)nc(N4CCOCC4)oc23)cc1,9.12,-0.31,27.1,0.83,5.81,12.8,13,38.5,14.3,6.19,-2.6,7.94,-0.25,17.4,0.87,-5.73,1.48,1.03,3.11,-6.51,IC50 [11]: 9.94 µM; inhibition of growth at 10 µM [13]: 14.9%; inhibition of growth at 10 µM [14]: 38.2%; inhibition of growth at 10 µM [15]: 2.85%; inhibition of growth at 10 µM [16]: 34.8%; inhibition of growth at 10 µM [17]: 4.28%; inhibition of growth at 10 µM (EKVX): 11.1%; inhibition of growth at 10 µM (SK-MEL-2): -9.8%; inhibition of growth at 10 µM (HT-29): 10.8%; inhibition of growth at 10 µM [18]: 7.35%
NC(=O)c1ccc(-c2cccc3c(=O)nc(N4CCOCC4)oc23)cc1,2.66,-4.18,1.82,2.31,4.92,10.4,8.86,12.2,7.55,-0.43,-3.93,-4.38,0.88,9.68,-3.57,-1.23,-2.82,-6.9,7.01,-3.41,IC50 [11]: 8.81 µM; inhibition of growth at 10 µM [13]: 10.1%; inhibition of growth at 10 µM [14]: 25.5%; inhibition of growth at 10 µM [15]: 9.54%; inhibition of growth at 10 µM [17]: -3.78%; inhibition of growth at 10 µM (EKVX): 2.66%; inhibition of growth at 10 µM (SK-MEL-2): -2.17%; inhibition of growth at 10 µM (HT-29): -0.51%; inhibition of growth at 10 µM [18]: 2.5%
O=c1nc(N2CCOCC2)oc2c(-c3cccc4ccccc34)cccc12,16.3,3.86,92,14.2,19.2,18,19.9,20.3,10.7,18.4,-3.19,38.9,8.18,10.2,2.12,-9.26,6.92,-1.44,9.24,10,IC50 [11]: 20.3 µM; inhibition of growth at 10 µM [13]: 40.3%; inhibition of growth at 10 µM [14]: 53.1%; inhibition of growth at 10 µM [15]: 2.95%; inhibition of growth at 10 µM [16]: 39.9%; inhibition of growth at 10 µM [17]: 3.51%; inhibition of growth at 10 µM (EKVX): 18.9%; inhibition of growth at 10 µM (SK-MEL-2): -0.37%; inhibition of growth at 10 µM (HT-29): 10.4%; inhibition of growth at 10 µM [18]: 6.4%
O=c1nc(N2CCOCC2)oc2c(-c3cccs3)cccc12,11,-0.55,36.8,4.68,8.34,13.8,14.4,17.8,13,2.88,1.02,9.88,5.86,21.9,1.09,-4.81,-0.6,-0.12,9.05,-0.56,IC50 [11]: 7.12 µM; inhibition of growth at 10 µM [13]: 17.2%; inhibition of growth at 10 µM [14]: 32.7%; inhibition of growth at 10 µM [15]: 2.16%; inhibition of growth at 10 µM [16]: 44.4%; inhibition of growth at 10 µM [17]: 3.74%; inhibition of growth at 10 µM (EKVX): 14.1%; inhibition of growth at 10 µM (SK-MEL-2): -7.08%; inhibition of growth at 10 µM (HT-29): 6.61%; inhibition of growth at 10 µM [18]: 3.68%
O=c1nc(N2CCOCC2)oc2c(-c3cccc4c3sc3ccccc34)cccc12,19.2,19.7,46.4,17.8,26.8,28.6,21.3,42.8,13.4,22.3,3.36,38.4,18.5,30.5,5.95,3.55,10.4,4.77,18.3,-11.4,IC50 [11]: 0.034 µM; inhibition of growth at 10 µM [13]: 40.5%; inhibition of growth at 10 µM [14]: 53%; inhibition of growth at 10 µM [15]: 7.25%; inhibition of growth at 10 µM [16]: 53.8%; inhibition of growth at 10 µM [17]: 5.04%; inhibition of growth at 10 µM (EKVX): 28.3%; inhibition of growth at 10 µM (SK-MEL-2): 9.49%; inhibition of growth at 10 µM (HT-29): 16.9%; inhibition of growth at 10 µM [18]: 11.5%
O=c1nc(N2CCOCC2)oc2ccc(-c3cccc4c3sc3ccccc34)cc12,2.44,3.98,37.4,6.66,4.6,-2.38,1.76,16.6,-2.37,-1.95,-2.96,-5.78,4.68,21,5.25,-17.8,-8.92,1.87,-0.24,-10.4,inhibition of growth at 10 µM [13]: 39.9%; inhibition of growth at 10 µM [14]: 10.5%; inhibition of growth at 10 µM [15]: 2.78%; inhibition of growth at 10 µM [16]: 41.6%; inhibition of growth at 10 µM [17]: 4.51%; inhibition of growth at 10 µM (EKVX): 5.25%; inhibition of growth at 10 µM (SK-MEL-2): 1.3%; inhibition of growth at 10 µM (HT-29): -13.4%; inhibition of growth at 10 µM [18]: -10.4%
